Paper PMC8229129, “Local Colonic Administration of a Serine Protease Inhibitor Improves Post-Inflammatory Visceral Hypersensitivity in Rats” (Pharmaceutics, 2021)

Key:
[1] = Plasma concentrations after intracolonic administration (LC-MS/MS); type: in vivo, Sprague–Dawley rats; settings: rat; for Plasma concentration: intracolonic 5 mg/kg
Procedure: To evaluate the pharmacokinetic properties of UAMC-00050, it was administered in male Sprague–Dawley rats (200–225 g) either colonically (5 mg/kg, in a volume of 200 µL 5% DMSO solution) or intravenously (1 mg/kg in a volume of 200 µL 5% DMSO solution). Plasma samples were collected after 5, 15, 30, 45, 60, 90, 120, and 180 min via the tail vein and stored at −80 °C until analysis.
Sample preparation and analysis of plasma samples consisted of protein precipitation followed by direct injection in a liquid chromatography–tandem mass spectrometry (LC-MS/MS) instrument. Briefly, 100 µL of plasma was spiked with 20 µL of nordazepam-D5 used as internal standard for quantification (yielding in a final concentration of 485 ng/mL) and afterwards 180 µL of acetonitrile was added to precipitate proteins. Subsequently, the samples were vortexed for 2.5 min at 2000× g and centrifuged for 5 min at 10,000× g. In a next step, 100 µL of the supernatant was transferred to a 0.20 µm centrifugal filter to remove remaining particles. After centrifugation for 5 min at 10,000× g, the remaining filtrate was transferred to an autosampler vial ready to be analyzed with LC-MS/MS. A seven-level point calibration curve with final concentrations ranging between 5 and 1000 ng/mL and a curve weighting factor of 1/x^2 was prepared in blank mouse plasma using different working solution standards of UAMC-00050 and a fixed amount of internal standard. The lower limit of quantification of the method was 5 ng/mL.
A gradient was applied as follows: 0–0.5 min: 5% B; 0.5–10 min 5–100% B; 10–12 min 100% B; and 12–12.1 min 5% B. The total run time was 18 min and the injection volume was set to 5 µL. Detection and quantification of UAMC-00050 were performed with an Agilent 6410 triple quadrupole MS system with an electrospray interface (ESI) operating in positive ionization mode. The following source parameters were applied: gas temperature 350 °C, gas flow 10 L/min, nebulizer 35 psi, and capillary voltage 4000 V. Compound-dependent MS parameters are summarized in Table 1. The most abundant transition of UAMC-00050 was used as quantifier and the other transitions were used for confirmation (qualifiers). For compound confirmation, the following criteria were used: the quantifier/qualifier ratio should fall within ±15% of the ratio observed in calibrators and the relative retention time should fall within 2.5% of the values observed in the calibrators.

[2] = test system: inflammatory infiltrate and mucosal architecture of distal colon; experiment: Microscopic score of the distal colon; type: in vivo, Sprague–Dawley rats; settings: for Microscopy, Day of VMR: score 0–10, mean ± SEM, n = 8
Procedure: For microscopic evaluation, a representative section of the distal colon (1 cm^2) was fixed in 4% formaldehyde for 24 h and embedded in paraffin for hematoxylin and eosin staining. Transverse sections (5 µm) were scored for the presence of inflammatory infiltrate and alterations in mucosal architecture, as previously described (total score 0–10, Supplementary Table S3).

neutrophil elastase = test system: neutrophil elastase; set-up: method as in PMID 29911328; settings: in vitro; cited from earlier work
chymotrypsin = chymotrypsin (Bos taurus, UniProt P00766); experiment: Inhibition of chymotrypsin by UAMC-00050 (IC50); type: biochemical; settings: in vitro
Procedure: (§1) Here, the potency of UAMC-00050 to inhibit two other serine proteases, chymotrypsin and pancreatic elastase, with specificity was determined.

kallikrein 8 = test system: kallikrein 8; set-up: method as in PMID 29911328; settings: in vitro; cited from earlier work
pancreatic elastase = pancreatic elastase (Homo sapiens, UniProt Q9UNI1); experiment: Inhibition of pancreatic elastase by UAMC-00050 (IC50); type: biochemical; settings: in vitro
Procedure: as §1

[3] = test system: colonic mucosal inflammation; experiment: Colonoscopic inflammatory score; type: in vivo, Sprague–Dawley rats; settings: for Colonoscopy, Day of VMR: score 0–19, mean ± SEM, n = 8
Procedure: An in vivo colonoscopy was performed to assess the presence and extent of TNBS-induced colitis, as previously described. Briefly, rats were anesthetized (ketamine/xylazine, 35/5 mg/kg, i.p.) and placed in a supine position. The lubricated tip of a pediatric upper gastrointestinal endoscope (Olympus GIF-N30) was carefully introduced into the colorectum and advanced until the hepatic flexure was reached. Then, the endoscope was slowly withdrawn while assessing the mucosal damage using a validated and standardized scoring system (Supplementary Table S1). In brief, a total inflammatory score (0–19) was calculated based on the extent of ulcerations, as well as on the presence of edema, bleeding, and colonic stenosis.

uPA = test system: uPA; set-up: method as in PMID 29911328; settings: in vitro; cited from earlier work
kallikrein 4 = test system: kallikrein 4; set-up: method as in PMID 29911328; settings: in vitro; cited from earlier work
kallikrein 2 = test system: kallikrein 2; set-up: method as in PMID 29911328; settings: in vitro; cited from earlier work
[4] = test system: MPO activity in colonic tissue; experiment: Colonic myeloperoxidase (MPO) activity; type: in vivo, Sprague–Dawley rats; settings: for MPO Activity, Day of VMR: mean ± SEM, n = 8, significant effect of treatment
Procedure: Finally, colonic MPO activity was determined in a full-thickness colonic segment (±30 mg) as published previously. MPO is a pro-inflammatory enzyme stored in the azurophilic granules of neutrophilic granulocytes and monocytes. […] One unit (U) of MPO activity is defined as the amount of enzyme required to convert 1 µmol H2O2 to H2O within 1 min at 25 °C and is expressed as U/g tissue.

[5] = test system: visceral hypersensitivity in post-colitis rats; set-up: method as in PMID 29911328; settings: TNBS-induced post-inflammatory rats, intraperitoneally; cited from earlier work
[6] = control rats, 5.0 mg/kg intracolonic
[7] = post-colitis rats, 0.1 mg/kg intracolonic
[8] = post-colitis rats, 1.0 mg/kg intracolonic
[9] = post-colitis rats, 2.5 mg/kg intracolonic
[10] = post-colitis rats, 5.0 mg/kg intracolonic
[11] = single intracolonic administration, control and post-colitis rats

pancreatic elastase, sequence (Q9UNI1 19-258): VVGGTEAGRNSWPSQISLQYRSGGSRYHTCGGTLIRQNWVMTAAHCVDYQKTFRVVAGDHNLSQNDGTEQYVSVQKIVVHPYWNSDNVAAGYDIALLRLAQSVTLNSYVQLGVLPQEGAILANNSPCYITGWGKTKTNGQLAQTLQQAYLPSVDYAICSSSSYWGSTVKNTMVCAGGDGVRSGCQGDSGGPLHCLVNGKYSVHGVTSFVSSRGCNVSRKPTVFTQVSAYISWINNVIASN

CC(=O)Nc1ccc(OP(=O)(Oc2ccc(NC(C)=O)cc2)C(Cc2ccc(N=C(N)N)cc2)NC(=O)OCc2ccccc2)cc1.Cl (stereo not drawn) [UAMC-00050]
Plasma concentration after intracolonic administration as share of plasma concentration after intravenous administration ([1]; 5 min after administration, 5 mg/kg intracolonic versus 1 mg/kg intravenous): 5.4% | Plasma concentration ([1]; 30–180 min after administration, lower limit of quantification 5 ng/mL): below the lower limit of quantification | Plasma concentration ([1]; 5 min after administration, mean ± SEM, n = 5): 14.1 ± 2.9 ng/mL | Plasma concentration ([1]; 15 min after administration, mean ± SEM, n = 5): 10.3 ± 1.3 ng/mL | Microscopy, Day of VMR [2, 6]: 0.8 ± 0.4 | Microscopy, Day of VMR [2, 7]: 0.4 ± 0.4 | Microscopy, Day of VMR [2, 8]: 0.8 ± 0.4 | Microscopy, Day of VMR [2, 9]: 0.5 ± 0.4 | Microscopy, Day of VMR [2, 10]: 0.6 ± 0.4 | Effect on microscopic evaluation of mucosal damage [2, 11]: no effect | inhibition of neutrophil elastase (neutrophil elastase): did not efficiently inhibit | IC50 (chymotrypsin): > 10 µM | inhibition of kallikrein 8 (kallikrein 8): efficiently inhibits | IC50 (pancreatic elastase): > 10 µM | Colonoscopy, Day of VMR [3, 6]: 0.0 ± 0.0 | Colonoscopy, Day of VMR [3, 7]: 0.0 ± 0.0 | Colonoscopy, Day of VMR [3, 8]: 0.0 ± 0.0 | Colonoscopy, Day of VMR [3, 9]: 0.0 ± 0.0 | Colonoscopy, Day of VMR [3, 10]: 0.0 ± 0.0 | Effect on colonoscopic inflammatory scores [3, 11]: no effect | inhibition of uPA (uPA): efficiently inhibits | inhibition of kallikrein 4 (kallikrein 4): efficiently inhibits | inhibition of kallikrein 2 (kallikrein 2): efficiently inhibits | MPO Activity, Day of VMR ([4]; control rats, 5.0 mg/kg intracolonic, vehicle 0.3 ± 0.1): 0.6 ± 0.2 U/g tissue | MPO Activity, Day of VMR ([4]; post-colitis rats, 0.1 mg/kg intracolonic, vehicle 0.3 ± 0.2): 2.0 ± 0.7 U/g tissue | MPO Activity, Day of VMR ([4]; post-colitis rats, 1.0 mg/kg intracolonic, vehicle 0.3 ± 0.2): 2.0 ± 0.5 U/g tissue | MPO Activity, Day of VMR ([4]; post-colitis rats, 2.5 mg/kg intracolonic, vehicle 0.3 ± 0.2): 2.1 ± 0.5 U/g tissue | MPO Activity, Day of VMR ([4]; post-colitis rats, 5.0 mg/kg intracolonic, vehicle 0.3 ± 0.2): 1.7 ± 0.5 U/g tissue | Effect on colonic MPO activity ([4]; single intracolonic administration, both control and post-colitis animals): increased | Dose required to obtain complete reversal of visceral hypersensitivity [5]: 1.0 mg/kg
